# Measured values published in patent US9546129B2, “DTPA prodrugs, compositions thereof, and methods of using the same” (priority 2012, dated 2017).
# Columns and labels:
# [1] = system: Chinese hamster ovary (CHO) cells; experiment: In vitro chromosomal aberration assay; format: cell-based
# Method: The objective of this in vitro assay was to evaluate the ability of C2E2 to induce chromosomal aberrations in cultured Chinese hamster ovary (CHO) cells with and without an exogenous metabolic activation system.
# C2E2 was prepared in cell culture grade water (CCGW) and formed a colorless, transparent, solution. The C2E2 was from Lot 050 obtained using Method 2. Subsequent stocks were prepared by serial dilution in vehicle and all treatments were administered into 10 mL cultures in a volume of 10%. Vehicle control cultures were treated with 100 μL/mL per culture. The treatment periods were for 3 hours with and without metabolic activation or approximately 20 hours without metabolic activation.
# In an initial chromosomal aberration assay (B1 test), C2E2 concentrations of 6.92, 9.89, 14.1, 20.2, 28.8, 41.2, 58.8, 84.0, 120, 172, 245, 350, and 500 μg/mL were tested in duplicate cultures in the 3- and 20-hour tests without S9 and in the 3-hour test with S9 metabolic activation. All cultures, under all test conditions, were harvested approximately 20 hours from the initiation of treatment. At culture termination, viable cells were counted and population doubling was calculated for measurement of cytotoxicity to support selection of dose levels for aberration analysis. Visual observations of cultures for general cell health and confluence were made prior to termination.
# [2] = Stability of C2E2 in plasma (Beagle); format: in vitro ADME, dog; details: 37° C., up to two hours
# Method: Prior to the study, 975 μL of plasma (Rat, Beagle and Human) was preheated to 37° C. in Eppendorff tubes and the test compound (C2E2) was prepared in DI water (10 mg/mL). The C2E2 was from Lot 050 obtained using Method 2. To initiate the study, 25 μL of the C2E2 solution was added to the pre-heated plasma and briefly vortexed, to mix. At 0, 15, 30, 60 and 120 minutes a 100 μL sample of plasma was taken, an equal volume of cold acetonitrile was added and mixed to precipitate plasma proteins. Samples were centrifuged at 4° C. and 14,000×g for 10 minutes to remove precipitated proteins, the supernatant was collected and the C2E2 concentration determined by HPLC-CAD. All conditions were repeated in triplicate.
# HPLC Detection Methods: C2E2 analysis was performed on a prominence HPLC (Shimadzu Corporation, Kyoto, Japan) equipped with a Corona Ultra charged […] detector (CAD) (Thermo scientific, Sunnyvale, Calif.). […]
# The gradient is 0.01-34.99 min: 22% B; 35.00-44.99 min: 33% B; 45.00-60.00 min: 38% B. The flow rate is 1.0 mL/min, a Thermo Hypersil ODS column (150 mm 4.6 mm i.d. with 5.0 μm particles) will be used, injection volume will be 10 μL and column oven temperature maintained at 25° C. […] The limit of quantification is 0.35 μg/mL. […]
smiles,measurement,setting,value
"CCOC(=O)CN(CCN(CCN(CC(=O)O)CC(=O)OCC)CC(=O)O)CC(=O)O [C2E2, 6,9-bis(carboxymethyl)-3-(2-ethoxy-2-oxoethyl)-11-oxo-12-oxa-3,6,9-triazatetradecan-1-oic acid]",Reduction in the mitotic index compared to vehicle control,"[1]; 14.1 μg/mL, 20-hour test without S9",53%
same,Cytotoxicity (observation),"[1]; 3-hour treatment with and without S9, up to 500 μg/mL",no relevant cytotoxicity
same,Induction of chromosomal aberrations,"[1]; with and without S9, up to cytotoxicity limiting dose levels and 500 μg/mL",negative
same,Metabolism in plasma (observation),[2],minimal or not detected
